Results from ChEMBL document CHEMBL1201862, “PubChem BioAssay data set” (2004).
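Interpolation was linear, between the two tested concentrations surrounding the appropriate level; five concentrations were tested over 48 hours in 96-well plates. GI50 marks 50% less growth.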 Active and inactive are the calls of the source. Cut-off read from the data, not from the text of the source: active = GI50 up to about 1.1 µM and inactive = higher.

Legend:
Assay in all cases: NCI-60 cell line screen, 48 h
MDA-MB-435 = test system: MDA-MB-435
HCT-116 = test system: HCT-116
U-251 = test system: U-251
CAKI-1 = test system: CAKI-1
M14 = test system: M14
MDA-MB-231 = test system: MDA-MB-231
RXF 393 = test system: RXF 393
EKVX = test system: EKVX
ACHN = test system: ACHN
SW-620 = test system: SW-620
PC-3 = test system: PC-3
HOP-62 = test system: HOP-62
NCI/ADR-RES = test system: NCI/ADR-RES
HT-29 = test system: HT-29
UO-31 = test system: UO-31
OVCAR-5 = test system: OVCAR-5
OVCAR-4 = test system: OVCAR-4
MOLT-4 = test system: MOLT-4
Hs-578T = test system: Hs-578T
HCC 2998 = test system: HCC 2998

SMILES | GI50 (MDA-MB-435) | GI50 (HCT-116) | GI50 (U-251) | GI50 (CAKI-1) | GI50 (M14) | GI50 (MDA-MB-231) | GI50 (RXF 393) | GI50 (EKVX) | GI50 (ACHN) | GI50 (SW-620) | GI50 (PC-3) | GI50 (HOP-62) | GI50 (NCI/ADR-RES) | GI50 (HT-29) | GI50 (UO-31) | GI50 (OVCAR-5) | GI50 (OVCAR-4) | GI50 (MOLT-4) | GI50 (Hs-578T) | GI50 (HCC 2998)
O=C(O)C(=O)Cc1ccc2c(c1)OCO2 | > 100 µM (inactive) | > 100 µM (inactive) | > 100 µM (inactive) | > 100 µM (inactive) | > 100 µM (inactive) | > 100 µM (inactive) | > 100 µM (inactive) | > 100 µM (inactive) | > 100 µM (inactive) | > 100 µM (inactive) | > 100 µM (inactive) | > 100 µM (inactive) | > 100 µM (inactive) | > 100 µM (inactive) | > 100 µM (inactive) | > 100 µM (inactive) | > 100 µM (inactive) | 83.8 µM (inactive) |  | 
COc1ccc(C2c3cc4c(cc3OC(N3CCCCC3)C2C)OCO4)cc1 (stereo unspecified) | 27 µM (inactive) | > 100 µM (inactive) |  | 36.6 µM (inactive) | > 100 µM (inactive) |  |  | > 100 µM (inactive) | 41.2 µM (inactive) | > 100 µM (inactive) | > 100 µM (inactive) | > 100 µM (inactive) | > 100 µM (inactive) | > 100 µM (inactive) | 85.3 µM (inactive) | > 100 µM (inactive) |  | > 100 µM (inactive) | 33.6 µM (inactive) | 
COc1cc(C2=C(c3cc(OC)c4ccccc4c3OC)C(=O)c3ccccc3C2=O)c(OC)c2ccccc12 | > 100 µM (inactive) | > 100 µM (inactive) | > 100 µM (inactive) | > 100 µM (inactive) | 82.4 µM (inactive) |  | > 100 µM (inactive) | > 100 µM (inactive) | > 100 µM (inactive) | > 100 µM (inactive) | > 100 µM (inactive) | > 100 µM (inactive) | > 100 µM (inactive) | > 100 µM (inactive) | > 100 µM (inactive) | 75.9 µM (inactive) | 1.14 µM (inactive) | > 100 µM (inactive) | > 100 µM (inactive) | 
C#C[C@@H](CCCC)OC(=O)N[C@H](C)c1ccccc1 |  | 34.3 µM (inactive) | 37.4 µM (inactive) | 42.9 µM (inactive) | 11.5 µM (inactive) |  | 2.36 µM (inactive) | 60.7 µM (inactive) | 43.8 µM (inactive) | 51.9 µM (inactive) |  | > 100 µM (inactive) |  | 40.3 µM (inactive) | 19 µM (inactive) | 33 µM (inactive) | 39.2 µM (inactive) | 27.3 µM (inactive) |  | 1.96 µM (inactive)
CCCCCCCCCCCC(=O)OCCOCCOCCOCCOCCOCc1ccccc1 |  | > 100 µM (inactive) | > 100 µM (inactive) | > 100 µM (inactive) | > 100 µM (inactive) |  | > 100 µM (inactive) | > 100 µM (inactive) | > 100 µM (inactive) | > 100 µM (inactive) |  | > 100 µM (inactive) |  | > 100 µM (inactive) | > 100 µM (inactive) | > 100 µM (inactive) | > 100 µM (inactive) | > 100 µM (inactive) |  | > 100 µM (inactive)
O=C1CC2(CCNCC2)C(=O)N1N1CCCC1 | > 100 µM (inactive) | > 100 µM (inactive) | > 100 µM (inactive) | > 100 µM (inactive) | > 100 µM (inactive) | > 100 µM (inactive) | > 100 µM (inactive) | > 100 µM (inactive) | > 100 µM (inactive) | > 100 µM (inactive) | > 100 µM (inactive) | > 100 µM (inactive) | > 100 µM (inactive) | > 100 µM (inactive) | > 100 µM (inactive) | > 100 µM (inactive) |  | > 100 µM (inactive) |  | > 100 µM (inactive)
Cc1c(Cl)ccc2c1NC(=O)C2(O)C(C(=O)c1ccccc1)c1ccccc1 (stereo unspecified) |  | 75.9 µM (inactive) | 34.8 µM (inactive) | 58.3 µM (inactive) | > 100 µM (inactive) |  | 27.5 µM (inactive) | 43.3 µM (inactive) | 72.4 µM (inactive) | 42.4 µM (inactive) |  | > 100 µM (inactive) |  | 29.9 µM (inactive) | 76.6 µM (inactive) | 32.7 µM (inactive) | 10.7 µM (inactive) | 22.9 µM (inactive) |  | 97.9 µM (inactive)
Cc1ccc(NC(=O)C(=O)Cc2cccc[n+]2[O-])cc1C |  | > 100 µM (inactive) | > 100 µM (inactive) | > 100 µM (inactive) | > 100 µM (inactive) |  | > 100 µM (inactive) | > 100 µM (inactive) | > 100 µM (inactive) | > 100 µM (inactive) |  | > 100 µM (inactive) |  | > 100 µM (inactive) | > 100 µM (inactive) | > 100 µM (inactive) | > 100 µM (inactive) | > 100 µM (inactive) |  | > 100 µM (inactive)
CC(=O)NC1C(OCc2ccccc2)OC(CO)C(O)C1OCC(=O)NC(C)C(=O)NC(CCC(=O)OCCNC(=O)c1cccc2cc3ccccc3nc12)C(N)=O (stereo unspecified) | 17.2 µM (inactive) | 10.4 µM (inactive) | 18.4 µM (inactive) | 14.8 µM (inactive) | 20.6 µM (inactive) |  | 16.5 µM (inactive) | 24.9 µM (inactive) | 12.3 µM (inactive) | 25.2 µM (inactive) | 27.4 µM (inactive) | 24.3 µM (inactive) | 21.6 µM (inactive) | 13 µM (inactive) | 14.5 µM (inactive) | 22.1 µM (inactive) | 20.8 µM (inactive) | 6.82 µM (inactive) |  | 18.4 µM (inactive)
CC1(C)OCC(COC(=O)C=[N+]=[N-])O1 (stereo unspecified) | > 100 µM (inactive) | > 100 µM (inactive) | > 100 µM (inactive) | > 100 µM (inactive) |  | > 100 µM (inactive) | > 100 µM (inactive) | > 100 µM (inactive) | > 100 µM (inactive) | > 100 µM (inactive) | > 100 µM (inactive) | 79.8 µM (inactive) |  | > 100 µM (inactive) | > 100 µM (inactive) | > 100 µM (inactive) | > 100 µM (inactive) | > 100 µM (inactive) |  | > 100 µM (inactive)
O=c1c2c(sc3ccccc13)NCN(CCc1ccccc1)C2 | 35.1 µM (inactive) | 23.4 µM (inactive) | 36.8 µM (inactive) | 41.6 µM (inactive) | 27 µM (inactive) | 23.5 µM (inactive) | 36.3 µM (inactive) | 30.8 µM (inactive) | 35.2 µM (inactive) | 31.8 µM (inactive) | 39.3 µM (inactive) | 34.6 µM (inactive) | 20.7 µM (inactive) | 18.4 µM (inactive) | 33.7 µM (inactive) | 81.5 µM (inactive) | 36.8 µM (inactive) | 31.2 µM (inactive) |  | 22.1 µM (inactive)
CN1CC[C@@H](c2c(O)cc(O)c3c(=O)cc(-c4ccccc4Cl)oc23)[C@@H](O)C1 | 0.0332 µM (active) | 0.02 µM (active) | 0.0385 µM (active) | 0.0343 µM (active) | 0.034 µM (active) | 0.0394 µM (active) | 0.0169 µM (active) | 0.0885 µM (active) | 0.0237 µM (active) | 0.0333 µM (active) | 0.0385 µM (active) | 0.0324 µM (active) |  | 0.0942 µM (active) | 0.0266 µM (active) | 0.0384 µM (active) | 0.0643 µM (active) | 0.0367 µM (active) |  | 0.0693 µM (active)
CCCCCCCC/C=C/CCCCCCCC1CC(O)C(=O)O1 (stereo unspecified) | 38.9 µM (inactive) | 41.1 µM (inactive) | 62.7 µM (inactive) |  | 41.4 µM (inactive) | > 100 µM (inactive) |  | 50.8 µM (inactive) | 28.4 µM (inactive) | 55.5 µM (inactive) | 46.3 µM (inactive) | 41.4 µM (inactive) | 54.1 µM (inactive) | 33.4 µM (inactive) | 62.8 µM (inactive) | > 100 µM (inactive) | 43.2 µM (inactive) | 32.9 µM (inactive) |  | 61.4 µM (inactive)
C1CCCCC2(CCCCCCCCC3(CCC1)OCCO3)OCCO2 | > 100 µM (inactive) | > 100 µM (inactive) | > 100 µM (inactive) | > 100 µM (inactive) | > 100 µM (inactive) |  | > 100 µM (inactive) | > 100 µM (inactive) | > 100 µM (inactive) | > 100 µM (inactive) | > 100 µM (inactive) | > 100 µM (inactive) | > 100 µM (inactive) | > 100 µM (inactive) | < 0.01 µM (active) | > 100 µM (inactive) | > 100 µM (inactive) |  | > 100 µM (inactive) | > 100 µM (inactive)
NC(=O)CCC(NC(=O)C(F)(F)F)C(=O)O (stereo unspecified) |  | > 100 µM (inactive) | > 100 µM (inactive) | > 100 µM (inactive) | > 100 µM (inactive) |  | > 100 µM (inactive) | > 100 µM (inactive) | > 100 µM (inactive) | > 100 µM (inactive) |  | > 100 µM (inactive) |  | > 100 µM (inactive) | > 100 µM (inactive) | > 100 µM (inactive) | > 100 µM (inactive) | > 100 µM (inactive) |  | > 100 µM (inactive)
CC(C)C(=O)NC(=S)Nc1ccc([N+](=O)[O-])cc1C#N |  | > 100 µM (inactive) | > 100 µM (inactive) | 66.2 µM (inactive) | > 100 µM (inactive) |  | > 100 µM (inactive) | 63.8 µM (inactive) | > 100 µM (inactive) | > 100 µM (inactive) |  | > 100 µM (inactive) |  | > 100 µM (inactive) | > 100 µM (inactive) | > 100 µM (inactive) | > 100 µM (inactive) | > 100 µM (inactive) |  | > 100 µM (inactive)
